Test results: the Kinase Knowledgebase extract (Sharma et al. 2016)

Target: CDK2 (UniProt P24941)
Experiment: Enzyme Assay
Details: concentration not given here

Structure (SMILES) | inhibition
Nc1nc(Nc2ccc(C(=O)N3CCN(CCCO)CC3)cc2)sc1C(=O)c1c(F)cccc1F | -14%
CCC(C)CN(CCO)C(=O)c1ccc(Nc2nc(N)c(C(=O)c3c(F)cccc3F)s2)cc1 (stereo unspecified) | -11%
NC(=O)c1cccc(NC(=O)c2ccc(Nc3nc(N)c(C(=O)c4c(F)cccc4F)s3)cc2)c1 | -1%
N#CCCN(CC1CCCO1)C(=O)c1ccc(Nc2nc(N)c(C(=O)c3c(F)cccc3F)s2)cc1 (stereo unspecified) | -5%
COCC(C)NC(=O)c1ccc(Nc2nc(N)c(C(=O)c3c(F)cccc3F)s2)cc1 (stereo unspecified) | -2%
Nc1nc(Nc2ccc(C(=O)NCCC3OCCO3)cc2)sc1C(=O)c1c(F)cccc1F | -10%
Nc1nc(Nc2ccc(C(=O)NCCCO)cc2)sc1C(=O)c1c(F)cccc1F | -2%
CC1CC(C)CN(C(=O)c2ccc(Nc3nc(N)c(C(=O)c4c(F)cccc4F)s3)cc2)C1 (stereo unspecified) | -33%
CCCCN(CCCC)C(=O)c1ccc(Nc2nc(N)c(C(=O)c3c(F)cccc3F)s2)cc1 | -7%
Nc1nc(Nc2ccc(C(=O)N3CCCCC3CCO)cc2)sc1C(=O)c1c(F)cccc1F (stereo unspecified) | -24%
COc1ccc(OC)c(CCNC(=O)c2ccc(Nc3nc(N)c(C(=O)c4c(F)cccc4F)s3)cc2)c1 | -5%
CC(C)(C)C1CCC(NC(=O)c2ccc(Nc3nc(N)c(C(=O)c4c(F)cccc4F)s3)cc2)CC1 (stereo unspecified) | -23%
COCCCNC(=O)c1ccc(Nc2nc(N)c(C(=O)c3c(F)cccc3F)s2)cc1 | -24%

Next, values leading:

inhibition | Structure (SMILES)
1% | C#CCc1ccc(NC(=O)c2ccc(Nc3nc(N)c(C(=O)c4c(F)cccc4F)s3)cc2)cc1
-14% | C#CCN(C)C(=O)c1ccc(Nc2nc(N)c(C(=O)c3c(F)cccc3F)s2)cc1
-6% | CC(CCc1ccccc1)NC(=O)c1ccc(Nc2nc(N)c(C(=O)c3c(F)cccc3F)s2)cc1 (stereo unspecified)
-12% | CCCN(CCc1ccccn1)C(=O)c1ccc(Nc2nc(N)c(C(=O)c3c(F)cccc3F)s2)cc1
-10% | Nc1nc(Nc2ccc(C(=O)Nc3ccc(Cl)cc3)cc2)sc1C(=O)c1c(F)cccc1F
-17% | CCCCN(Cc1ccccc1)C(=O)c1ccc(Nc2nc(N)c(C(=O)c3c(F)cccc3F)s2)cc1
-12% | CN(CCc1ccccc1)C(=O)c1ccc(Nc2nc(N)c(C(=O)c3c(F)cccc3F)s2)cc1
19% | Nc1nc(Nc2ccc(CCO)cc2)sc1C(=O)c1c(F)cccc1F
-12% | CCN(C)C(=O)c1ccc(Nc2nc(N)c(C(=O)c3c(F)cccc3F)s2)cc1
0% | Nc1nc(Nc2ccc(C(=O)NCCc3ccc(Cl)cc3)cc2)sc1C(=O)c1c(F)cccc1F
-6% | Nc1nc(Nc2ccc(C(=O)NCCc3cccc(F)c3)cc2)sc1C(=O)c1c(F)cccc1F
-6% | Nc1nc(Nc2ccc(C(=O)Nc3cccc(F)c3)cc2)sc1C(=O)c1c(F)cccc1F
-19% | CCOc1ccccc1CCNC(=O)c1ccc(Nc2nc(N)c(C(=O)c3c(F)cccc3F)s2)cc1
-23% | CN(C)C(=O)CN(C)C(=O)c1ccc(Nc2nc(N)c(C(=O)c3c(F)cccc3F)s2)cc1
-4% | CN(C)CCCCNC(=O)c1ccc(Nc2nc(N)c(C(=O)c3c(F)cccc3F)s2)cc1
-16% | CCCN(C(=O)c1ccc(Nc2nc(N)c(C(=O)c3c(F)cccc3F)s2)cc1)C(C)CC (stereo unspecified)
-14% | N#CCCSc1ccccc1NC(=O)c1ccc(Nc2nc(N)c(C(=O)c3c(F)cccc3F)s2)cc1
-4% | COC(=O)c1ccccc1NC(=O)c1ccc(Nc2nc(N)c(C(=O)c3c(F)cccc3F)s2)cc1
